Experiments:
Details in all cases: incubation time: 72 h
[1] = test system: CAL-51; assay: normalised viability (% of control), CellTiter-Blue; higher = more viable cells (about 100 = DMSO control)
Summary of the method: (§1)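 Vehicle (100) and a positive kill control (0) anchored the normalisation of each plate, and Z'-factor was used for quality control. Breast cancer cell lines in 20 µl suspension were incubated 72 h over compound in 5 µl medium in 384-well plates, followed by CellTiter-Blue at 560/590 nm. The value is normalised viability at a single listed concentration of the series.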

[2] = test system: MDA-MB-231; assay: as above
Summary of the method: as §1

[3] = test system: CAL-120; assay: as above
Summary of the method: as §1

[4] = test system: HDQ-P1; assay: as above
Summary of the method: as §1

[5] = test system: HCC1937; assay: as above
Summary of the method: as §1

[6] = test system: CAL-148; assay: as above
Summary of the method: as §1

[7] = test system: MFM-223; assay: as above
Summary of the method: as §1

[8] = test system: HCC1599; assay: as above
Summary of the method: as §1

[9] = test system: HCC1143; assay: as above
Summary of the method: as §1

[10] = test system: BT-549; assay: as above
Summary of the method: as §1

[11] = test system: BT-474; assay: as above
Summary of the method: as §1

[12] = test system: CAL-85-1; assay: as above
Summary of the method: as §1

[13] = test system: MDA-MB-468; assay: as above
Summary of the method: as §1

[14] = test system: DU-4475; assay: as above
Summary of the method: as §1

[15] = test system: MDA-MB-436; assay: as above
Summary of the method: as §1

[16] = test system: MDA-MB-453; assay: as above
Summary of the method: as §1

[17] = test system: SK-BR-3; assay: as above
Summary of the method: as §1

[18] = test system: CAL-51; assay: normalised viability (% of control), CellTiter-Blue; higher = more viable cells (100 = DMSO, 0 = benzethonium chloride kill control)
Summary of the method: as §1

[19] = test system: MDA-MB-231; assay: as above
Summary of the method: as §1

[20] = test system: CAL-120; assay: as above
Summary of the method: as §1

[21] = test system: HDQ-P1; assay: as above
Summary of the method: as §1

[22] = test system: MFM-223; assay: as above
Summary of the method: as §1

[23] = test system: HCC1143; assay: as above
Summary of the method: as §1

[24] = test system: Hs578T; assay: as above
Summary of the method: as §1

[25] = test system: DU-4475; assay: as above
Summary of the method: as §1

[26] = test system: SK-BR-3; assay: as above
Summary of the method: as §1

## O=C(Nc1c[nH]nc1-c1nc2ccc(CN3CCOCC3)cc2[nH]1)NC1CC1 [AT9283]
[1]; 3 nM
  normalised viability: 107%
[1]; 30 nM
  normalised viability: 97.8%
[1]; 100 nM
  normalised viability: 56.3%
[2]; 10 nM
  normalised viability: 87.5%
[2]; 1000 nM
  normalised viability: 43.3%
[2]; 10000 nM
  normalised viability: 5.14%
[3]; 10 nM
  normalised viability: 84.9%
[3]; 1000 nM
  normalised viability: 22.1%
[3]; 10000 nM
  normalised viability: 6.61%
[4]; 3 nM
  normalised viability: 113%
[4]; 30 nM
  normalised viability: 97.3%
[4]; 100 nM
  normalised viability: 81.2%
[5]; 10 nM
  normalised viability: 106%
[5]; 1000 nM
  normalised viability: 43.4%
[5]; 10000 nM
  normalised viability: 15.5%
[6]; 3 nM
  normalised viability: 80%
[6]; 30 nM
  normalised viability: 69%
[6]; 100 nM
  normalised viability: 31.8%
[7]; 10 nM
  normalised viability: 93.4%
[7]; 1000 nM
  normalised viability: 57.4%
[7]; 10000 nM
  normalised viability: 19%
[8]; 10 nM
  normalised viability: 102%
[8]; 1000 nM
  normalised viability: 72.5%
[8]; 10000 nM
  normalised viability: 11.9%
[9]; 10 nM
  normalised viability: 77.8%
[9]; 1000 nM
  normalised viability: 51.8%
[9]; 10000 nM
  normalised viability: 13.9%
[10]; 10 nM
  normalised viability: 95.8%
[10]; 1000 nM
  normalised viability: 46.7%
[10]; 10000 nM
  normalised viability: 4.31%
[11]; 10 nM
  normalised viability: 111%
[11]; 1000 nM
  normalised viability: 78.8%
[11]; 10000 nM
  normalised viability: 7.58%
[12]; 3 nM
  normalised viability: 89.8%
[12]; 30 nM
  normalised viability: 72.8%
[12]; 100 nM
  normalised viability: 78.6%
[13]; 10 nM
  normalised viability: 108%
[13]; 1000 nM
  normalised viability: 43.1%
[13]; 10000 nM
  normalised viability: 6.32%
[14]; 3 nM
  normalised viability: 91.2%
[14]; 30 nM
  normalised viability: 94.1%
[14]; 100 nM
  normalised viability: 43.9%
[15]; 10 nM
  normalised viability: 97.4%
[15]; 1000 nM
  normalised viability: 64.2%
[15]; 10000 nM
  normalised viability: 29.6%
[16]; 3 nM
  normalised viability: 99.2%
[16]; 30 nM
  normalised viability: 60.1%
[16]; 100 nM
  normalised viability: 54.7%
[17]; 10 nM
  normalised viability: 93.9%
[17]; 1000 nM
  normalised viability: 40.3%
[17]; 10000 nM
  normalised viability: 6.9%
[18]; 1 nM
  normalised viability: 107%
[19]; 1 nM
  normalised viability: 91.6%
[20]; 1 nM
  normalised viability: 87.1%
[21]; 1 nM
  normalised viability: 103%
[22]; 1 nM
  normalised viability: 102%
[23]; 1 nM
  normalised viability: 87.1%
[24]; 1 nM
  normalised viability: 117%
[25]; 1 nM
  normalised viability: 95.5%
[26]; 1 nM
  normalised viability: 104%

## COc1cc(CCc2cc(NC(=O)c3ccc(N4CC(C)NC(C)C4)cc3)n[nH]2)cc(OC)c1 (stereo not given) [AZD4547]
[1]; 0.3 nM
  normalised viability: 120%
[1]; 3 nM
  normalised viability: 107%
[1]; 10 nM
  normalised viability: 99.8%
[2]; 1 nM
  normalised viability: 110%
[2]; 100 nM
  normalised viability: 105%
[2]; 1000 nM
  normalised viability: 113%
[3]; 1 nM
  normalised viability: 86%
[3]; 100 nM
  normalised viability: 80.4%
[3]; 1000 nM
  normalised viability: 65.1%
[4]; 0.3 nM
  normalised viability: 113%
[4]; 3 nM
  normalised viability: 120%
[4]; 10 nM
  normalised viability: 117%
[5]; 1 nM
  normalised viability: 157%
[5]; 100 nM
  normalised viability: 103%
[5]; 1000 nM
  normalised viability: 115%
[6]; 0.3 nM
  normalised viability: 97.9%
[6]; 3 nM
  normalised viability: 93.7%
[6]; 10 nM
  normalised viability: 89.7%
[7]; 1 nM
  normalised viability: 91%
[7]; 100 nM
  normalised viability: 50.4%
[7]; 1000 nM
  normalised viability: 12.3%
[8]; 1 nM
  normalised viability: 92.5%
[8]; 100 nM
  normalised viability: 77.4%
[8]; 1000 nM
  normalised viability: 18.8%
[9]; 1 nM
  normalised viability: 94.3%
[9]; 100 nM
  normalised viability: 87.9%
[9]; 1000 nM
  normalised viability: 93%
[10]; 1 nM
  normalised viability: 89.1%
[10]; 100 nM
  normalised viability: 105%
[10]; 1000 nM
  normalised viability: 112%
[11]; 1 nM
  normalised viability: 121%
[11]; 100 nM
  normalised viability: 119%
[11]; 1000 nM
  normalised viability: 128%
[12]; 0.3 nM
  normalised viability: 91%
[12]; 3 nM
  normalised viability: 90%
[12]; 10 nM
  normalised viability: 94.6%
[13]; 1 nM
  normalised viability: 113%
[13]; 100 nM
  normalised viability: 105%
[13]; 1000 nM
  normalised viability: 105%
[14]; 0.3 nM
  normalised viability: 92.3%
[14]; 3 nM
  normalised viability: 84%
[14]; 10 nM
  normalised viability: 103%
[15]; 1 nM
  normalised viability: 105%
[15]; 100 nM
  normalised viability: 104%
[15]; 1000 nM
  normalised viability: 109%
[16]; 0.3 nM
  normalised viability: 119%
[16]; 3 nM
  normalised viability: 91.5%
[16]; 10 nM
  normalised viability: 95.8%
[17]; 1 nM
  normalised viability: 112%
[17]; 100 nM
  normalised viability: 113%
[17]; 1000 nM
  normalised viability: 105%
[18]; 0.1 nM
  normalised viability: 117%
[19]; 0.1 nM
  normalised viability: 100%
[20]; 0.1 nM
  normalised viability: 93.6%
[21]; 0.1 nM
  normalised viability: 139%
[22]; 0.1 nM
  normalised viability: 91.8%
[23]; 0.1 nM
  normalised viability: 96%
[24]; 0.1 nM
  normalised viability: 108%
[25]; 0.1 nM
  normalised viability: 95.7%
[26]; 0.1 nM
  normalised viability: 102%

— the supplement of paper PMC4862054
